Source: US12077508B2, “Inhibitors of the Notch transcriptional activation complex kinase (“NACK”) and methods for use of the same” (UNIVERSITY OF MIAMI, priority 2018, dated 2024)
“Also recorded” adds a separate entry of the source. Read-outs that look alike come from different tables or passages of the source.

Assays:
OE33 cell line = experiment: Colony formation assay in OE33 cells; assay type: cell-based, human; conditions: for EC50: Homo sapiens, read-out: EC50 colony formation titration assay
Protocol: (§1) A cell based colony formation assay was used in these experiments. Normal mouse mammary epithelia HC11 cells have little or no endogenous NACK expression, and NACK knockdown had no effect on the growth of HC11 cells (FIG. 5A, lower panel). […] Knockdown of NACK was confirmed by western blot and qPCR (FIGS. 1D and 1E). […] Therefore, compounds that affect OE33 colony formation but not HC11 were desired. In order to screen the compounds, cells were treated with test compounds every other day.
(§2) Colony formation assay was utilized to determine the effect of small molecule inhibitors on cell proliferation. In general, different cell lines (NACK dependent or independent) will be seeded in 6-well plates at a density of 2000 cells per well and allowed to attach overnight. Inhibitor treatment commenced 24 hours post seeding, and the media containing inhibitor was changed every 48 hours thereafter. After 168 hours, colonies were be stained with Crystal Violet (Millipore) and counted.

HC11 cells = experiment: Colony formation assay in HC11 cells; assay type: cell-based, mouse; conditions: Notch/NACK independent cell line; FIG. 5B
Protocol: as §1, §2

OE33 spheres = experiment: Tumor sphere formation assay in OE33; assay type: cell-based, human
Protocol: (§3) In order to assess the effect of hit to lead compounds on the proliferation of stem cell like population of Notch/NACK dependent cells, the primary tumor spheres were treated with NACK inhibitor and allow the cells to be propagated as secondary cultures. To obtain tumor spheres, cells were cultured in DMEM/F12 with 2% B-27 serum-free supplement (17604-044; Invitrogen), 20 ng/mL epidermal growth factor (EGF; PHG0311L; Invitrogen), and 20 ng/mL basic fibroblastic growth factor (bFGF; PHG0266; Invitrogen) for 14 days. Resulting tumor spheres were examined and counted under the microscope. Furthermore, the tumor spheres were collected for further RT-qPCR analysis to test the effect of hit to lead compounds on the stem like target genes.

HC11/N1ICD spheres = experiment: Tumor sphere formation assay in HC11/N1ICD; assay type: cell-based, mouse
Description: To further explore the effect of NACK inhibitors targeting Notch pathway, ectopic expression of Notch in HC11 mammary epithelial cells was constructed, as HC11 cells have little to no endogenous Notch activity. Moreover, HC11 cells are insensitive to either DAPT or Z271-0326 treatment as shown in previous colony formation assay (FIG. 5B). See Weaver et al., Cancer Research 74, 4741-4751 (2014). […] Therefore, transformation of HC11 cells by Notch now renders these cells dependent on Notch activity and sensitive to inhibition of NACK by Z271-0326.
as §3

HES1 promoter = experiment: Chromatin immunoprecipitation (ChIP) at the HES1 promoter in OE33; assay type: cell-based, human; conditions: FIG. 8C
Protocol: Notch/NACK-dependent cells were treated with either DAPT as a positive control, DMSO (vehicle) as a negative control, or compounds for screening for 24 hours. After treatment, cells were cross-linked and sonicated to yield chromatin fragments of approximately 500 bp, as previously described (See Weaver et al., Cancer Research 74, 4741-4751 (2014)). Lysates were immunoprecipitated with either α-Notch1 (Bethyl Laboratories, Montgomery, TX; A301-894A), α-Maml1 (Cell Signaling, 12166s), α-NACK (Bethyl Laboratories, A302-675A), or α-PoIII pSer5 (Abcam, ab5131) antibodies. DNA immunoprecipitates were cleaned using the PCR purification Kit (Qiagen). DNA were detected by Syber green qPCR using HES1 specific oligonucleotide primers (forward: 5′CGTGTCTCCTCCTCCCATT3′ (SEQ ID NO: 2); reverse: 5′GGGGGATTCCGCTGTTAT3′ (SEQ ID NO:3)).

OE33 cells [1] = experiment: Cell apoptosis assay (Annexin V/PI flow cytometry); assay type: cell-based, human; conditions: day 7 of treatment, FIG. 9A
Protocol: To investigate how Z271-0326 inhibits cell growth in EAC cell lines, the effect of Z271-0326 treatment was evaluated on apoptosis. OE33 was treated either with the GSI DAPT or Z271-0326 every other day, and their effects on apoptosis were analyzed. On day 7 of treatment, cell apoptosis was analyzed using FITC Annexin V/Dead Cell Apoptosis Kit with FIFC annexin V and PI for flow cytometry (Invitrogen, V13242).

OE33 cells [2] = experiment: Senescence-associated β-galactosidase assay; assay type: cell-based, human; conditions: treatment for 3 weeks, FIG. 9B
Protocol: After prolonged Z271-0326 or DAPT treatment for 3 weeks of live cells of OE33, cells were measured by senescence-associated β-galaotosidase activity according to the manufacture recommended protocol (Senescence β-Galaotosidase Staining Kit, Cell Signaling, #9860).

Plasma pharmacokinetics = assay type: in vivo, male C57 BL/6 mice; conditions: for Tmax: ip
Description: The plasma pharmacokinetic profile of Z271-0326 was investigated following a single intravenous and intraperitoneal dose administration in male C57 BL/6 mice (FIG. 12). […] The Vss was similar to the normal volume of total body water (0.7 L/kg). The Vss is a pharmacokinetic parameter, which represents the volume distribution of a drug in the body tissue. […] This dose was MTD for the 4-week efficacy studies shown in preliminary data.
The plasma pharmacokinetic profile of Z271-0326 was investigated following a single intravenous and intraperitoneal dose administration in male C57 BL/6 mice.

LCK = LCK (Homo sapiens, UniProt P06239); experiment: ADP-Glo LCK kinase assay; assay type: biochemical; conditions: FIG. 17B
LCK, sequence (P06239 whole entry, species assumed): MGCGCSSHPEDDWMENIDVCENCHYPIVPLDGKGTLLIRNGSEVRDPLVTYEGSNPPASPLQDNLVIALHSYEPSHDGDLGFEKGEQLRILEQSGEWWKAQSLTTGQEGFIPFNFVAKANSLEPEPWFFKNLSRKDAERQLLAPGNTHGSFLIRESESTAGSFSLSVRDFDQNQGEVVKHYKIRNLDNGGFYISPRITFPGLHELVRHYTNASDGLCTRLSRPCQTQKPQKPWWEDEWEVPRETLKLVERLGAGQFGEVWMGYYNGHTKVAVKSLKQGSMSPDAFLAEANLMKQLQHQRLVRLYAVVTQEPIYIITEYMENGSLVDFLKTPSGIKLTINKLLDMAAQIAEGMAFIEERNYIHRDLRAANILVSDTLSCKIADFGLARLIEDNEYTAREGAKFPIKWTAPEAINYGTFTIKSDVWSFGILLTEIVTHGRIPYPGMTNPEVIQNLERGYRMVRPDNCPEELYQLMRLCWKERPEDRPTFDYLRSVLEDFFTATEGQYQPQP
Protocol: (§4) ADP-Glo kinase assay was performed using ADP-Glo™ Kinase Assay (Promega, V6930) according to the manufacture recommended protocol.

MAP4K5 = MAP4K5 (Homo sapiens, UniProt Q9Y4K4); experiment: ADP-Glo MAP4K5 kinase assay; assay type: biochemical; conditions: FIG. 17A
MAP4K5, sequence (Q9Y4K4 whole entry, species assumed): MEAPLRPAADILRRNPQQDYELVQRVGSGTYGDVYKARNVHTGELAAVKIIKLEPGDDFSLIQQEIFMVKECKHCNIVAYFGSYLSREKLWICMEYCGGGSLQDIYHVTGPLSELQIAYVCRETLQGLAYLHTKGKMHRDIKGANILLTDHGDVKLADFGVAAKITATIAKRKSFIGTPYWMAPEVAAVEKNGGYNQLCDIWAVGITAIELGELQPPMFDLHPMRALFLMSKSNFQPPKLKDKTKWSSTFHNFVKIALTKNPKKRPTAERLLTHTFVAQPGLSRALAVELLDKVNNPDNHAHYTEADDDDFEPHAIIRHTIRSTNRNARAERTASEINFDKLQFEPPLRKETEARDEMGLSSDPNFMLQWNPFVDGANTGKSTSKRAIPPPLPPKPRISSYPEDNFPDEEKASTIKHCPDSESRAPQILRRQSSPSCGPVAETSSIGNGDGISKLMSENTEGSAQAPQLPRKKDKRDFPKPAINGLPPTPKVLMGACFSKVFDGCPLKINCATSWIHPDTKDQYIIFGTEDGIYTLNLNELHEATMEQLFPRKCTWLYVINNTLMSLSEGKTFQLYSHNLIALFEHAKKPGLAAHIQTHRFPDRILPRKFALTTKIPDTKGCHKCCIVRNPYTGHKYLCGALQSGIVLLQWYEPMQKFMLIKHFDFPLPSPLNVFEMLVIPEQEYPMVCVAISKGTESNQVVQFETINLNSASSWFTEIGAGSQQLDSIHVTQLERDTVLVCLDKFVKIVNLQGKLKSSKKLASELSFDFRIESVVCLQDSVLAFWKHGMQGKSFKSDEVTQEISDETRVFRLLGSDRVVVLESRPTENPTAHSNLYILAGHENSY
Protocol: as §4

TNIK = TNIK (Homo sapiens, UniProt Q9UKE5); experiment: ADP-Glo TNIK kinase assay; assay type: biochemical; conditions: FIG. 17C
TNIK, sequence (Q9UKE5 whole entry, species assumed): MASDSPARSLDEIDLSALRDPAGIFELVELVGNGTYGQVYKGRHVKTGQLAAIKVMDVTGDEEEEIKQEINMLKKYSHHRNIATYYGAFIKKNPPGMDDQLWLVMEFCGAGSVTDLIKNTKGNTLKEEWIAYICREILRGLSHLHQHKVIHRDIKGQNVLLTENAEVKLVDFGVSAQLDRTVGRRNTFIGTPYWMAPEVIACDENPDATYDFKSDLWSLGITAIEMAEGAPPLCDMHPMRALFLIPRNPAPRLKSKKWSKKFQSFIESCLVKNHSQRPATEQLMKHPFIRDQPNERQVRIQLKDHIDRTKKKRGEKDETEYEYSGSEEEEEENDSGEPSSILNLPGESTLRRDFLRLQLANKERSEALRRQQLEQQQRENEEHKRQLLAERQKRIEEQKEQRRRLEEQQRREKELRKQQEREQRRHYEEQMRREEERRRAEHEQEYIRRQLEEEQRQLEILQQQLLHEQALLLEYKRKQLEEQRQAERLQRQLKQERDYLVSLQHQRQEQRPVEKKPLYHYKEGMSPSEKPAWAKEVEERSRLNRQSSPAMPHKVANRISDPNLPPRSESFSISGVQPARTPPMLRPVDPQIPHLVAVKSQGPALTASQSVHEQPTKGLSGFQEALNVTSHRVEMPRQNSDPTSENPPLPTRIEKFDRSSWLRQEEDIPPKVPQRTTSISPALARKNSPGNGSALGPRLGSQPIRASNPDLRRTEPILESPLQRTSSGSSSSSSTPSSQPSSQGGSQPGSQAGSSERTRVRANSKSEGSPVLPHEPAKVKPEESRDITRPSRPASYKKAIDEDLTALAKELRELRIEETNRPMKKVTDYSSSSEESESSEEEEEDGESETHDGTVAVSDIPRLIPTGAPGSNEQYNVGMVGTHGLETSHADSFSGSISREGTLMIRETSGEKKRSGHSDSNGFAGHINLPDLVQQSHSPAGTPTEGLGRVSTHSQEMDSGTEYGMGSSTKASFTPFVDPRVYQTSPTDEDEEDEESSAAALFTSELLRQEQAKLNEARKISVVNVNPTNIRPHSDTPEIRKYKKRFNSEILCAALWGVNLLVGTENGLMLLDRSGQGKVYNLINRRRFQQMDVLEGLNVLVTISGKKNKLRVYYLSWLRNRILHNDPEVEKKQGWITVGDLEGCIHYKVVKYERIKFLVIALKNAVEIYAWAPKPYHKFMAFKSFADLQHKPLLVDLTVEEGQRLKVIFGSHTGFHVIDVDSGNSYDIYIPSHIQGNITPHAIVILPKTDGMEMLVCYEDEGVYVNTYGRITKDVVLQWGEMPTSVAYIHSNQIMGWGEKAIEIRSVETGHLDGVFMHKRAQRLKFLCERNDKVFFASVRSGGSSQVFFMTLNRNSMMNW
Protocol: as §4

[3] = Maximum tolerated dose in efficacy studies; conditions: mouse, in vivo, ip, 25 mg/kg; 4-week efficacy studies; intraperitoneal
[4] = test system: esophageal adenocarcinoma (EAC) PDX
Protocol: Two EAC PDX models were constructed (EAC47 and EAC36) from patient tumor samples. Mice harboring established tumors (approx. 200 mm^3) were treated with either DAPT (20 mg/kg) or Z271-0326 (25 mg/kg) daily via intraperitoneal injections.
When the tumor size reaches 200 mm^3, the corresponding groups were either treated with vehicle (DMSO) or lead compound by IP injection daily.

CCN(CC)C(=O)c1cnn2ccc(C3CCN(S(=O)(=O)c4ccc(NC(C)=O)cc4)CC3)cc12 [Compound Z271-0326, 5-(1-((4-acetamidophenyl)sulfonyl)piperidin-4-yl)-N,N-diethylpyrazolo[1,5-a]pyridine-3-carboxamide]
EC50 (OE33 cell line; OE33, OE33 cell line, FIG. 18): 1.27 µM
EC50 (OE33 cell line; OE33, estimated, FIG. 6C): 1.05 µM
OE33 colony formation (OE33 cell line; cells treated every other day, FIGS. 5B, 5C): effectively inhibit OE33 colony formation
HC11 colony formation / viability (HC11 cells): but not HC11 cell; also recorded: insensitive
secondary sphere formation (OE33 spheres; OE33, FIG. 7A): decrease in the ability of cell spheres to form secondary spheres
Notch target genes transcription in spheres (OE33 spheres; OE33 spheres, FIG. 7B): affected Notch target genes HES1, MYC, CCND1 and NACK transcription
HES1 and stem-cell marker gene expression (ALDH1A1, SNAIL1, TWIST1) (HC11/N1ICD spheres; HC11/N1ICD spheres, FIG. 7D): causes a decrease in HES1 gene expression as well as several other stem-cell marker genes
secondary sphere formation (HC11/N1ICD spheres; HC11/N1ICD, FIG. 7C): inhibits the ability of HC11/N1ICD spheres to form secondary spheres
binding of N1ICD and NACK to the HES1 promoter (HES1 promoter; 24 hours): abrogated the binding of N1ICD and NACK to the HES1 promoter
Pol II pSer5 initiation complex formation at the HES1 promoter (HES1 promoter): decreases the RNA polymerase initiation complex (Pol II pSer5) formation at the HES1 promoter
increase in the percent of cells undergoing apoptosis compared to the control (OE33 cells [1]): threefold
cellular senescence (senescence-associated β-galactosidase activity) (OE33 cells [2]): resulted in the induction of cellular senescence
Tmax (Plasma pharmacokinetics; male, C57BL/6, mouse, plasma, single intraperitoneal 25 mg/kg): 15 min
Tmax (Plasma pharmacokinetics; male, C57BL/6, mouse, plasma, single intraperitoneal 100 mg/kg): 60 min
clearance (Plasma pharmacokinetics; male, C57BL/6, mouse, plasma, single intravenous 5 mg/kg, read-out: systemic plasma clearance): 30 mL/min/kg
half-life (Plasma pharmacokinetics; male, C57BL/6, mouse, plasma, single intravenous 5 mg/kg, read-out: terminal elimination half-life (converted)): 13.8 min
Vd (Plasma pharmacokinetics; male, C57BL/6, mouse, plasma, single intravenous 5 mg/kg, similar to total body water, read-out: Vss): ~0.7 L/kg
time plasma concentrations quantifiable up to (Plasma pharmacokinetics; single intraperitoneal 25 mg/kg): up to 4 hr
time plasma concentrations quantifiable up to (Plasma pharmacokinetics; single intraperitoneal 100 mg/kg): up to 24 hr
LCK kinase inhibition (LCK): meaningfully inhibits LCK
MAP4K5 kinase inhibition (MAP4K5): only meaningfully inhibits LCK out of the three kinases
TNIK kinase inhibition (TNIK): only meaningfully inhibits LCK out of the three kinases
MTD at 4 weeks [3]: 25 mg/kg
proliferation index (Ki67 staining) ([4]; Z271-0326 25 mg/kg daily i.p., vs control group, FIG. 11E): decrease in proliferation index
tumor growth ([4]; Z271-0326 25 mg/kg daily intraperitoneal, vs vehicle, FIGS. 11A-11C): significantly attenuated
